The text below walks through data of ChEMBL document CHEMBL4387727, “Novel triazine-based pyrimidines suppress glomerular mesangial cells proliferation and matrix protein accumulation through a ROS-dependent mechanism in the diabetic milieu” (2019).

What all share (format): functional
A short description of test [1]: Antioxidant activity in serum deprived rat Glomerular mesangial cells assessed as EOH level by measuring EOH/DHE level in presence of 25 mM glucose at 0.5 uM after 48 hrs by DHE based HPLC analysis (reference value: 654.98 +/- 32.31 nmol/micromol).
Test [2] is described as follows: Antioxidant activity in serum deprived rat Glomerular mesangial cells assessed as EOH level by measuring EOH/DHE level in presence of 25 mM glucose at 1 uM after 48 hrs by DHE based HPLC analysis (reference value: 654.98 +/- 32.31 nmol/micromol).
The nature of test [3]: Antioxidant activity in serum deprived rat Glomerular mesangial cells assessed as EOH level by measuring EOH/DHE level in presence of 25 mM glucose at 2.5 uM after 48 hrs by DHE based HPLC analysis (reference value: 654.98 +/- 32.31 nmol/micromol).
A short description of test [4]: Nephroprotective activity in serum deprived rat Glomerular mesangial cells assessed as fibronectin protein expression in presence of 25 mM glucose at 1 uM after 48 hrs by Western blot analysis (reference value: 270.11 +/- 19.17%). For orientation: A western blot detects proteins with antibodies after separation by electrophoresis.
Test [5] is described as follows: Nephroprotective activity in serum deprived rat Glomerular mesangial cells assessed as fibronectin protein expression in presence of 25 mM glucose at 5 uM after 48 hrs by Western blot analysis (reference value: 270.11 +/- 19.17%).
Test [6] can be described thus: Nephroprotective activity in serum deprived rat Glomerular mesangial cells assessed as fibronectin protein expression in presence of 25 mM glucose at 2.5 uM after 48 hrs by Western blot analysis (reference value: 270.11 +/- 19.17%).
Test [7] is described as follows: Nephroprotective activity in serum deprived rat Glomerular mesangial cells assessed as fibronectin protein expression in presence of 25 mM glucose at 0.5 uM after 48 hrs by Western blot analysis (reference value: 270.11 +/- 19.17%).
The nature of test [8]: Antioxidant activity in serum deprived rat Glomerular mesangial cells assessed as EOH level by measuring EOH/DHE level in presence of 25 mM glucose at 5 uM after 48 hrs by DHE based HPLC analysis (reference value: 654.98 +/- 32.31 nmol/micromol).
The species entered for test [9] is Rattus norvegicus. In words: Antioxidant activity in serum deprived rat Glomerular mesangial cells assessed as reduction in NADPH oxidase dependent super oxide generation in presence of 25 mM glucose at 0.5 uM after 48 hrs by Lucigenin-enhanced chemiluminescence method.
The species entered for test [10] is Rattus norvegicus. Put plainly: Antioxidant activity in serum deprived rat Glomerular mesangial cells assessed as reduction in NADPH oxidase dependent super oxide generation in presence of 25 mM glucose at 1 uM after 48 hrs by Lucigenin-enhanced chemiluminescence method.
For test [11], the species on record is Rattus norvegicus. In words: Antiproliferative activity against serum deprived rat Glomerular mesangial cells assessed as reduction in 25 mM glucose-induced cell proliferation at 0.5 uM after 48 hrs by MTT assay. (In general: Tetrazolium dyes change colour on reduction, which living cells bring about.)
For test [12], the species on record is Rattus norvegicus. In words: Antiproliferative activity against serum deprived rat Glomerular mesangial cells assessed as reduction in 25 mM glucose-induced cell proliferation at 1 uM after 48 hrs by MTT assay.

The source made the active and inactive calls. No cut-off for these calls is given here.

For `Cc1cn(CCC(=O)NNc2nc(Cl)nc(NNC(=O)CCn3cc(C)c(=O)[nH]c3=O)n2)c(=O)[nH]c1=O`, the Activity came out at 651.54 nmol/umol in [1]; 671.14 nmol/umol in test [2]; 512.62 nmol/umol in test [3]; 200.79% in test [4]; 170.26% in [5]; 189.91% in [6]. In addition, the Activity in test [7] is reported as 231.19%; in test [8] it was 413.96 nmol/umol.
Turning to `O=C(CCn1ccc(=O)[nH]c1=O)NNc1nc(Cl)nc(NNC(=O)CCn2ccc(=O)[nH]c2=O)n1`, the Activity is listed as 660.36 nmol/umol in [1]; 648.96 nmol/umol in test [2]; 661.09 nmol/umol in [3]; 280.24% in test [4]; 179.47% in [5]; 219.47% in test [6]. Moreover, the Activity was 267.45% in test [7] and 672.32 nmol/umol in [8].
As for `Cc1cn(CCC(=O)NN)c(=O)nc1O`, the Activity was 701.09 nmol/umol in test [1]; 658.92 nmol/umol in test [2]; 683.28 nmol/umol in test [3]; 272.26% in test [4]; 239.46% in test [5]; 251.59% in test [6]. Moreover, the Activity in test [7] came out at 289.17%; in [8], 710.14 nmol/umol.
For `NNC(=O)CCn1ccc(O)nc1=O`, the Activity was 666.94 nmol/umol in test [1]; 671.47 nmol/umol in [2]; 654.48 nmol/umol in [3]; 265.72% in test [4]; 227.83% in [5]; 241.91% in test [6]. The Activity in test [7] was found to be 268.71%; in test [8], 618.26 nmol/umol.
For the compound `O=C(CCn1ccc(=O)[nH]c1=O)NNc1nc(NNC(=O)CCn2ccc(=O)[nH]c2=O)nc(NNC(=O)CCn2ccc(=O)[nH]c2=O)n1`, the Activity is 359.07 nmol/umol in test [1]; 274.37 nmol/umol in [2]; 198.48 nmol/umol in [3]; 167.88% in test [4]; 121.19% in test [5]; 142.45% in test [6]. Further, the Activity in [7] was 191.33%; in test [8], 210.93 nmol/umol. In addition, the outcome in the test listed under Rattus norvegicus [9], in the test listed under Rattus norvegicus [10], in the test listed under Rattus norvegicus [11] and in the test listed under Rattus norvegicus [12] was Active.
With `Cc1cn(CCC(=O)NNc2nc(NNC(=O)CCn3ccc(=O)[nH]c3=O)nc(NNC(=O)CCn3cc(C)c(=O)[nH]c3=O)n2)c(=O)[nH]c1=O`, the Activity in test [1] turned out to be 323.17 nmol/umol; in test [2] it was 257.69 nmol/umol; in [3] it was 249.97 nmol/umol; in [4], 135.87%; in test [5], 121.34%; in test [6], 127.09%. The values for the Activity in test [7] and in test [8] were 114.54% and 240.46 nmol/umol, respectively. Besides, the result in the test filed under Rattus norvegicus [9], in the test filed under Rattus norvegicus [10], in the test filed under Rattus norvegicus [11] and in the test listed under Rattus norvegicus [12] was Active.
As to `Cc1cn(CCC(=O)NNc2nc(NNC(=O)CCn3ccc(=O)[nH]c3=O)nc(NNC(=O)CCn3ccc(=O)[nH]c3=O)n2)c(=O)[nH]c1=O`, the Activity is reported as 454.37 nmol/umol in test [1]; 306.28 nmol/umol in [2]; 231.15 nmol/umol in test [3]; 145.64% in test [4]; 151.18% in test [5]; 143.41% in [6]. The Activity in test [7] was 178.33%; in test [8], 217.62 nmol/umol. Moreover, the outcome in the test filed under Rattus norvegicus [9], in the test listed under Rattus norvegicus [10], in the test filed under Rattus norvegicus [11] and in the test listed under Rattus norvegicus [12] was Active.
Turning to `Cc1cn(CCC(=O)NNc2nc(NNC(=O)CCn3cc(C)c(=O)[nH]c3=O)nc(NNC(=O)CCn3cc(C)c(=O)[nH]c3=O)n2)c(=O)[nH]c1=O`, the Activity is 404.34 nmol/umol in test [1]; 305.77 nmol/umol in [2]; 200.36 nmol/umol in test [3]; 141.91% in test [4]; 102.99% in test [5]; 108.35% in test [6]. Further, the results for the Activity in [7] and in test [8] were 182.76% and 224.71 nmol/umol, respectively. In addition, the result in the test listed under Rattus norvegicus [9], in the test filed under Rattus norvegicus [10], in the test listed under Rattus norvegicus [11] and in the test listed under Rattus norvegicus [12] was Active.
